Experimental findings from ChEMBL document CHEMBL1135946, “Design, synthesis and biological activity of novel non-amidine factor Xa inhibitors. Part 1: P(1) structure-activity relationships of the substituted 1-(2-Naphthyl)-1H-pyrazole-5-carboxylamides” (Bioorg Med Chem Lett, 2002) are described below.

For orientation: IC50 means the point on the concentration scale where inhibition reaches its midpoint. Low readings indicate higher potency, high ones lower potency. Broadly, the half-life is the time needed for the level to fall by half in the phase considered. Low readings indicate rapid decline, high ones slow decline. As a reminder, the clearance is a measure of how efficiently the substance is removed, as volume per time. The low end stands for a low capacity for elimination, the high end for a high capacity for elimination. Usually Ki stands for a dissociation constant, usually derived from enzyme kinetics or from competition with a known ligand.

The target in data set [1] is Vitamin K-dependent protein C (Homo sapiens, UniProt P04070). Kind of data set: Inhibitory activity against activated protein C.
The target in data set [2] is T1, Coagulation factor X (Homo sapiens, UniProt P00742). Kind of data set: Inhibitory activity against coagulation factor Xa.
In another data set the target is Kallikrein-1 (Homo sapiens, UniProt P06870). Kind of data set: Inhibitory activity against kallikrein.
The target of a further data set is Plasminogen (Homo sapiens, UniProt P00747). Kind of data set: Inhibitory activity against plasmin.
The target in another data set is Prothrombin (Homo sapiens, UniProt P00734). Kind of data set: Inhibitory activity against thrombin.
In another data set the target is Serine protease 1 (Homo sapiens, UniProt P07477). Kind of data set: Inhibitory activity against trypsin.
The nature of data set [3]: Tested for volume of distribution after intravenous administration to Sprague-Dawley rat at dosage of 0.2 mg/kg. It counts as ADME, organism-based. Further details: dose 0.2 mg/kg, route intravenous. The conditions noted are these: in vivo, read-out: Volume of distribution.
Data set [4] is described as follows: Tested for half life value after oral administration at dosage of 4 mg/kg in rat. It counts as ADME, organism-based. Further details: dose 4 mg/kg, route oral. The conditions noted are these: in vivo.
A short description of data set [5]: Clearance after iv administration to Sprague-Dawley rat at dosage of 0.2 mg/kg. Also on record: dose 0.2 mg/kg, route intravenous. The conditions noted are these: in vivo. The data set is classed as ADME, organism-based.
In data set [6] the target is T1, Coagulation factor X. Kind of data set: Tested for inhibitory activity against Coagulation factor Xa (trypsin-like serine protease) of the compound.
Data set [7] is described as follows: Tested for half life value after intravenous administration at dose of 0.2 mg/kg in rat. The data set is classed as ADME, organism-based. Also on record: dose 0.2 mg/kg, route intravenous. As to conditions: in vivo.
Data set [8] in a line: Tested for percent bioavailability after oral administration to Sprague-Dawley rat at dosage of 4 mg/kg. The conditions noted are these: in vivo, read-out: Bioavailabiility.
Data set [9] is described as follows: Oral bioavailability in rat by oral dosing. The data set is classed as ADME, organism-based. As to conditions: in vivo.
A short description of data set [10]: Half-life was determined. It counts as ADME, organism-based. The conditions noted are these: rat, in vivo.

Each structure is given as a SMILES string.

Sequence of Kallikrein-1 (P06870 whole entry): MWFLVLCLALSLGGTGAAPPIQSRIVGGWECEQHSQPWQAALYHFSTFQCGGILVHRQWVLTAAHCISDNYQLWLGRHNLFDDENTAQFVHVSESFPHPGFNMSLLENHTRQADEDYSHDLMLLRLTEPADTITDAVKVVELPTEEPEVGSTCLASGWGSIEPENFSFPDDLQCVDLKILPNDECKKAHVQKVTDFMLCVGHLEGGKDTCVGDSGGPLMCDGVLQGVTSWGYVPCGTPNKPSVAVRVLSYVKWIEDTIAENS
T1 sequence (P00742 41-179 limits assumed): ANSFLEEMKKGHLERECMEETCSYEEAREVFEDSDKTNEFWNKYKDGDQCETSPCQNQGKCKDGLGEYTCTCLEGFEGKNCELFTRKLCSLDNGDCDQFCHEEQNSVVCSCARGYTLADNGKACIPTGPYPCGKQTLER
T1 sequence (P00742 235-488 limits assumed): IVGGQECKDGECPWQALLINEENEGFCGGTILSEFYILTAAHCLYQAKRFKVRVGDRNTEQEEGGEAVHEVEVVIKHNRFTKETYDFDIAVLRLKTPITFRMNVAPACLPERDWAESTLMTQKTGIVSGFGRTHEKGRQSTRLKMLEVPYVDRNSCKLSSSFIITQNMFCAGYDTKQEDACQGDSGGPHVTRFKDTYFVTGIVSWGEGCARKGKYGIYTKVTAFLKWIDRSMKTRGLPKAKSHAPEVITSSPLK
Sequence of Plasminogen (P00747 97-580 limits assumed): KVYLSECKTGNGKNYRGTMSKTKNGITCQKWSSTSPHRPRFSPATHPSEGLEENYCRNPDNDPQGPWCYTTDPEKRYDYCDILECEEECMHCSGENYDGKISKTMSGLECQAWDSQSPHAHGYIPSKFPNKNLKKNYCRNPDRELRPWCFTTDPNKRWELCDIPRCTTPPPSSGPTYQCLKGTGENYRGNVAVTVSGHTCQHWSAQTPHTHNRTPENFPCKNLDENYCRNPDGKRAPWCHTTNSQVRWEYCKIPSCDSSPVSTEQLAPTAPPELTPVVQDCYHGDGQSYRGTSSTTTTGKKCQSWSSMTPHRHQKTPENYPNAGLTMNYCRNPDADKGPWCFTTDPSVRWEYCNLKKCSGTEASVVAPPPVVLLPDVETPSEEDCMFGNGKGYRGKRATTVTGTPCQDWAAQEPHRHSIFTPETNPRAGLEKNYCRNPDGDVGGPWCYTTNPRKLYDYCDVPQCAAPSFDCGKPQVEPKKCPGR
Sequence of Plasminogen (P00747 581-810 limits assumed): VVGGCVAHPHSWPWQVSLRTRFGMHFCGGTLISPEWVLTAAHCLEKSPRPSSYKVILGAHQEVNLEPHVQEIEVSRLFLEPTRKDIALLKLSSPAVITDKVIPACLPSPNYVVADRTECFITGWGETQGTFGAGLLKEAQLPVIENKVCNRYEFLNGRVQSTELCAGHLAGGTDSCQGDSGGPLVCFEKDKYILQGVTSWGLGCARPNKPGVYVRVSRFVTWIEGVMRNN
Sequence of Serine protease 1 (P07477 whole entry): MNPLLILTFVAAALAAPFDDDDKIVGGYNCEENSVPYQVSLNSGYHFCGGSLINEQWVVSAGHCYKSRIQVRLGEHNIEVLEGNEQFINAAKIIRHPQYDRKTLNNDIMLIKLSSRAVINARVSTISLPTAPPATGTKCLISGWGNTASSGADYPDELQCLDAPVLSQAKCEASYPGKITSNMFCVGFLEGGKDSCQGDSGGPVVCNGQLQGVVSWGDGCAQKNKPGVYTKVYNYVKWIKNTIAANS
Sequence of Vitamin K-dependent protein C (P04070 43-197 limits assumed): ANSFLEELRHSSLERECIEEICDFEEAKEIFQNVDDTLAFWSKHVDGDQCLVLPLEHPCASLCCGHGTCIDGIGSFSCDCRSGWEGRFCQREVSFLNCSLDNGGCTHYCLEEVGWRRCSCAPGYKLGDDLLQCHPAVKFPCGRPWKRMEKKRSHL
Sequence of Vitamin K-dependent protein C (P04070 212-461 limits assumed): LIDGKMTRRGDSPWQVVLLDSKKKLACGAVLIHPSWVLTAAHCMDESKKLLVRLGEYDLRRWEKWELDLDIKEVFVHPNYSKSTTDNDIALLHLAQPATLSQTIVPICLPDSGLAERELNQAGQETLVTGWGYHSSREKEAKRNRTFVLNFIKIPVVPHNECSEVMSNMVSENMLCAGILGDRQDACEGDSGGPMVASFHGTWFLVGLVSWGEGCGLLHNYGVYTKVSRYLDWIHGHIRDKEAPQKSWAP

As to `Cc1cc(C(=O)Nc2ccc(-c3ccccc3S(N)(=O)=O)cc2)n(-c2ccc3cc(Cl)ccc3c2)n1`, the IC50 is greater than 11 µM in [1]; 0.011 µM on Coagulation factor X [2]; greater than 11 µM on Kallikrein-1; greater than 11 µM against Plasminogen; greater than 11 µM at Prothrombin; greater than 11 µM at Serine protease 1.
In the case of `Cc1cc(C(=O)Nc2ccc(-c3ccccc3S(N)(=O)=O)cc2)n(-c2cc3ccccc3cc2S(N)(=O)=O)n1`, the IC50 in data set [1] is greater than 11 µM; against Coagulation factor X [2] it was 0.024 µM; at Kallikrein-1, greater than 11 µM; at Plasminogen, greater than 11 µM; at Prothrombin, greater than 11 µM; on Serine protease 1 it was greater than 11 µM.
With `Cc1cc(C(=O)Nc2ccc(-c3ccccc3S(N)(=O)=O)cc2)n(-c2cc3ccccc3cc2C2=NCCN2)n1`, the IC50 is greater than 11 µM in data set [1]; 7.82 µM against Coagulation factor X [2]; greater than 11 µM on Kallikrein-1; greater than 11 µM on Plasminogen; greater than 11 µM against Prothrombin; greater than 11 µM against Serine protease 1.
Consider `NS(=O)(=O)c1ccccc1-c1ccc(NC(=O)c2cc(C(F)(F)F)nn2-c2ccc3cc(Cl)ccc3c2)cc1`, for which half-maximal inhibition against Coagulation factor X [2] (IC50) required 0.004 µM.
Take `Cc1cc(C(=O)Nc2ccc(-c3ccccc3S(N)(=O)=O)cc2)n(-c2cc3ccccc3cc2C#N)n1`: the IC50 was greater than 11 µM in data set [1]; 0.006 µM at Coagulation factor X [2]; greater than 11 µM against Kallikrein-1; greater than 11 µM on Plasminogen; greater than 11 µM at Prothrombin; greater than 11 µM at Serine protease 1.
On to `Cc1cc(C(=O)Nc2ccc(-c3ccccc3S(N)(=O)=O)cc2)n(-c2cc3ccccc3cc2CN)n1`, for which the half-maximal inhibitory concentration (IC50) in data set [1] is greater than 11 µM; against Coagulation factor X [2] it was 0.038 µM; on Kallikrein-1, greater than 11 µM; at Plasminogen, greater than 11 µM; against Prothrombin it was greater than 11 µM; at Serine protease 1 it was greater than 11 µM.
With `Cc1cc(C(=O)Nc2ccc(-c3ccccc3S(N)(=O)=O)cc2)n(-c2ccc3cc(Br)ccc3c2)n1`, the IC50 in data set [1] is greater than 11 µM; at Coagulation factor X [2], 0.018 µM; at Kallikrein-1, greater than 11 µM; against Plasminogen it was greater than 11 µM; at Prothrombin it was greater than 11 µM; against Serine protease 1, greater than 11 µM.
For the compound `COC(=O)c1cc2ccccc2cc1-n1nc(C)cc1C(=O)Nc1ccc(-c2ccccc2S(N)(=O)=O)cc1`, the half-maximal inhibitory concentration (IC50) was greater than 11 µM in [1]; 0.545 µM on Coagulation factor X [2]; greater than 11 µM against Kallikrein-1; greater than 11 µM on Plasminogen; greater than 11 µM on Prothrombin; greater than 11 µM against Serine protease 1.
For the compound `Cc1cc(C(=O)Nc2ccc(-c3ccccc3S(N)(=O)=O)cc2)n(-c2cc3ccccc3cc2CO)n1`, the half-inhibitory concentration (IC50) in data set [1] was greater than 11 µM; against Coagulation factor X [2] it was 0.483 µM; against Kallikrein-1 it was greater than 11 µM; on Plasminogen, greater than 11 µM; on Prothrombin, greater than 11 µM; against Serine protease 1 it was greater than 11 µM.
For `Cc1cc(C(=O)Nc2ccc(-c3ccccc3S(N)(=O)=O)cc2)n(-c2cc3ccccc3cc2C(=N)N(C)C)n1`, the IC50 in data set [1] is greater than 11 µM; against Coagulation factor X [2], 1.65 µM; at Kallikrein-1, greater than 11 µM; against Plasminogen, greater than 11 µM; against Prothrombin, greater than 11 µM; against Serine protease 1 it was greater than 11 µM.
Turning to `Cc1cc(C(=O)Nc2ccc(-c3ccccc3S(N)(=O)=O)cc2)n(-c2cc3ccccc3cc2F)n1`, in data set [3], the Vd was found to be 2.6 L/kg. The half-life in [4] is 6 h; in data set [7] it was 1.7 h. In data set [5], this compound yielded a clearance of 17.7 mL/min/kg. Also, the IC50 is greater than 11 µM in [1]; 0.009 µM against Coagulation factor X [2]; greater than 11 µM against Kallikrein-1; greater than 11 µM against Plasminogen; greater than 11 µM on Prothrombin; greater than 11 µM at Serine protease 1. For the same compound, the Ki on Coagulation factor X [6] stood at 0.0057 µM. Besides, the bioavailability in data set [8] amounted to 22%.
With `Cc1cc(C(=O)Nc2ccc(-c3ccccc3S(N)(=O)=O)cc2)n(-c2cc3ccccc3cc2C(=O)O)n1`, the IC50 was greater than 11 µM in data set [1]; 0.376 µM against Coagulation factor X [2]; greater than 11 µM on Kallikrein-1; greater than 11 µM against Plasminogen; greater than 11 µM on Prothrombin; greater than 11 µM against Serine protease 1.
With `Cc1cc(C(=O)Nc2ccc(-c3ccccc3S(N)(=O)=O)cc2)n(-c2cc3ccccc3cc2O)n1`, the concentration for half-maximal inhibition (IC50) (in data set [1]; against Coagulation factor X [2]; on Kallikrein-1; on Plasminogen; on Prothrombin; at Serine protease 1) was greater than 11 µM each time.
Regarding `COc1ccc2cc(-n3nc(C)cc3C(=O)Nc3ccc(-c4ccccc4S(N)(=O)=O)cc3)ccc2c1`, the concentration for half-maximal inhibition (IC50) (in data set [1]; against Kallikrein-1; on Plasminogen; against Prothrombin; at Serine protease 1) was greater than 11 µM each time.
Turning to `NS(=O)(=O)c1ccccc1-c1ccc(NC(=O)c2cc(C(F)(F)F)nn2-c2cc3ccccc3cc2F)cc1`, the IC50 on Coagulation factor X [2] stood at 0.027 µM.
As for `Cc1cc(C(=O)Nc2ccc(-c3ccccc3S(N)(=O)=O)cc2)n(-c2ccc3cc(O)ccc3c2)n1`, the IC50 was greater than 11 µM in data set [1]; 3.51 µM on Coagulation factor X [2]; greater than 11 µM against Kallikrein-1; greater than 11 µM on Plasminogen; greater than 11 µM against Prothrombin; greater than 11 µM against Serine protease 1.
With `Cc1cc(C(=O)Nc2ccc(-c3ccccc3S(N)(=O)=O)cc2)n(-c2cc3ccccc3cc2C(=N)N)n1`, the half-maximal inhibitory concentration (IC50) is greater than 11 µM in data set [1]; 0.021 µM against Coagulation factor X [2]; greater than 11 µM on Kallikrein-1; greater than 11 µM against Plasminogen; greater than 11 µM at Prothrombin; greater than 11 µM on Serine protease 1.
`Cc1cc(C(=O)Nc2ccc(-c3ccccc3S(N)(=O)=O)cc2)n(-c2cc3ccccc3cc2S(C)(=O)=O)n1`: the 50% inhibitory concentration (IC50) in data set [1] was greater than 11 µM; against Coagulation factor X [2] it was 0.045 µM; on Kallikrein-1, greater than 11 µM; at Plasminogen it was greater than 11 µM; on Prothrombin it was greater than 11 µM; on Serine protease 1, greater than 11 µM.
With `Cc1cc(C(=O)Nc2ccc(-c3ccccc3S(N)(=O)=O)cc2)n(-c2cc3ccccc3cc2C(N)=O)n1`, the 50% inhibitory concentration (IC50) in [1] is greater than 11 µM; on Coagulation factor X [2] it was 0.024 µM; against Kallikrein-1, greater than 11 µM; on Plasminogen, greater than 11 µM; at Prothrombin, greater than 11 µM; at Serine protease 1, greater than 11 µM.
As to `Cc1cc(C(=O)Nc2ccc(-c3ccccc3S(N)(=O)=O)cc2)n(-c2cc3ccccc3cc2Br)n1`, the IC50 in [1] is greater than 11 µM; against Coagulation factor X [2] it was 0.143 µM; against Kallikrein-1, greater than 11 µM; against Plasminogen it was greater than 11 µM; against Prothrombin, greater than 11 µM; on Serine protease 1 it was greater than 11 µM.
Regarding `Cc1cc(C(=O)Nc2ccc(-c3ccccc3S(N)(=O)=O)cc2)n(-c2nc3ccc(Cl)cc3s2)n1`, on Coagulation factor X [2], the IC50 is greater than 11 µM.
Turning to `Cc1cc(C(=O)Nc2ccc(-c3ccccc3S(N)(=O)=O)cc2)n(-c2ccc3ccccc3c2)n1`, in data set [9], the bioavailability stood at 24.5%. In addition, in data set [10], the half-life is 2.4 h. Also, the IC50 was greater than 11 µM in [1]; 0.104 µM at Coagulation factor X [2]; greater than 11 µM against Kallikrein-1; greater than 11 µM at Plasminogen; greater than 11 µM against Prothrombin; greater than 11 µM against Serine protease 1.
